The record followed here is patent US20240115557A1, “INHIBITORS OF RNA-GUIDED NUCLEASES AND USES THEREOF” (The Brigham and Women's Hospital, Inc., priority 2022, published 2024).

Assay [1] addresses T1, SpCas9 (Streptococcus pyogenes serotype M1, UniProt Q99ZW2). The assay is described as follows: Strand displacement assay (SDA) / cumulative activity assay (CAA), SpCas9 primary screen. As to conditions: Primary Screen (150 min); for Normalized Z score 1: replicate 1; for Normalized Z score 2: replicate 2. It counts as biochemical. The method, then:
Screening of inhibitors was via a high throughput pipeline, as depicted in FIG. 29. The first screening is via a strand displacement assay (SDA) for detecting nuclease activity (FIG. 27A, 28A). The Cpf1/Cas12 protein/DNA complex has a different structure from Cas9 and requires optimization of the potential fluorophore attachment sites (Yamano, T et al., Cell, 2016). (FIG. 28A). Next screened compounds are evaluated in an eGFP cell assay, and for eGFP dose. Those compounds are further narrowed via a HiBiT assay and finally evaluated in the surveyor assay. SAR evaluations are performed to arrive at lead compounds for further evaluations and variations. General methodology for the assays is as described in at [0253]-[0301] of U.S. Patent Application 62/831,143 filed Apr. 8, 2019, incorporated herein by reference.
The 3′ end of the displacing single-stranded DNA was labeled with a quencher. Following nuclease cleavage of the substrate, the 3′-labeled quenching DNA strand (present in excess) could outcompete the weakly held 3′ strand to anneal to the 5′ strand. The resulting FRET fluorescence quenching provides an optical readout for nuclease activity (FIG. 62A).
Typically, SpCas9: gRNA (1:1.2 ratio) RNP was pre-formed at 1 μM in Cas9 assay buffer (20 mM Tris-HCl, pH=7.5, 100 mM KCl, 5 mM MgCl2) for 5 min at 4° C. before diluting to 10 nM in Cas9 assay buffer (2× final concentration). 25 μL of the Cas9 2× stock was manually dispensed to a black 384-well plate (Corning 3575) using electronic pipette. […] Following this, pre-annealed Alexa-Fluor 647 labeled substrate and quencher were also diluted to 1 nM and 5 nM in Cas9 assay buffer, respectively (2× stock solution). Next, 25 μL of the substrate/quencher solution was added manually to each well of the Cas9-containing 384-well plates using an electronic pipette and was incubated at 37° C. for 2.5 h. Fluorescent signals were read with the microplate reader set to read Alexa-Fluor 647 fluorescence. Assay was performed similarly with SaCas9 and FnCas12a using the respective enzyme, gRNA, substrate, and quencher oligos. […]

Assay [2] deals with T1, SpCas9. The assay is described as follows: eGFP disruption assay, SpCas9, U2OS.eGFP.PEST cells. It counts as cell-based. Conditions: for Normalized Z rep1 / Z score Rep1: replicate 1; for SpCas9 eGFP disruption Rep1: replicate 1, raw readout; for Normalized Z rep2 / Z socre Rep2: replicate 2; for SpCas9 eGFP disruption Rep2: replicate 2, raw readout. The text has this:
In some embodiments, the secondary assay may be an EGFP disruption assay. In such assay, a quantitative human cell-based reporter assay that enables rapid quantitation of targeted nuclease activities is used to characterize off-target cleavage of Cas9-based RNA guided endonucleases. In this assay, the activities of nucleases targeted to a single integrated EGFP reporter gene can be quantified by assessing loss of fluorescence signal in human U2OS.EGFP cells caused by inactivating frameshift insertion/deletion (indel) mutations introduced by error prone non-homologous end-joining (NHEJ) repair of nuclease-induced double-stranded breaks (DSBs).
In one protocol, U2OS.EGFP cells harboring a single integrated copy of an EGFP-PEST fusion gene are cultured (see e.g., Reyon et al., Nat Biotech 30, 460-465 (2012), which is herein incorporated by reference in its entirety). For transfections, 200,000 cells are Nucleofected with gRNA expression plasmid and pJDS246 together with 30 ng of a Td-tomato-encoding plasmid using the SE Cell Line 4D-Nucleofector™ X Kit (Lonza) according to the manufacturer's protocol. Cells are analyzed 2 days post-transfection using a BD LSRII flow cytometer. Transfections for optimizing gRNA/Cas9 plasmid concentration are performed in triplicate and all other transfections are performed in duplicate. PCR amplification is used for sequence verification of endogenous human genomic sites. PCR reactions are performed using Phusion Hot Start II high-fidelity DNA polymerase (NEB). Loci are amplified using touchdown PCR (98° C., 10 s; 72-62° C., −1° C./cycle, 15s; 72° C., 30 s] 10 cycles, [98° C., 10s; 62° C., 15s; 72° C., 30 s] 25 cycles). Alternatively, PCR for other targets is performed with 35 cycles at a constant annealing temperature of 68° C. or 72° C., and 3% DMSO or IM betaine, if necessary. PCR products are analyzed on a QIAXCEL capillary electrophoresis system to verify both size and purity. Validated products are treated with ExoSap-IT (Affymetrix) and sequenced by the Sanger method (MGH DNA Sequencing Core) to verify each target site.
Primary and secondary screening. The primary screen assayed a selection of unique chemical scaffolds derived from commercially available compounds and known bioactive molecular libraries (Table 7). Auto-fluorescent compounds were removed by a counter screen. Overall, the CAA was used to assay 122,409 small molecules with over 2,500 unique chemical scaffolds (FIG. 64F, Table 7). Of these compounds, 547 were selected as hits (Z score >3 in both replicates) for testing in orthogonal cell-based secondary assays. Hits were tested in duplicate in an eGFP disruption assay, wherein U2OS.eGFP.PEST cells^33 transfected with SpCas9 plasmid and eGFP-targeting gRNA plasmid were incubated with 20 μM of the compounds. In this assay, any compound that inhibited SpCas9 would rescue the loss of eGFP fluorescence. Here, toxic and auto-fluorescent compounds with a high GFP signal in cells were removed as false positives. […] Next, Applicants tested the 15 compounds in a luminescence-based gain-of-signal HiBiT knock-in assay, which involves SpCas9-mediated homology-directed tagging of GAPDH with a short peptide that luminesces upon complementation with a subunit derived from nanoluciferase.^34 Complementarily, the eGFP-disruption assay is fluorescence-based and involves error-prone DNA repair. As a counter-screen to remove false positives caused by cell death (viability <80%), the cell viability was measured after incubation.
For SAR studies and dose-response studies, 300,000 U2OS.eGFP.PEST cells were nucleofected with 300 ng of SpCas9 plasmid (Addgene #43861) and 30 ng of eGFP-targeting gRNA plasmid (Addgene #47511)^33 using SE Cell Line 4D-Nucleofector X Kit (Lonza) following the pulse program of DN-100. For RNP-based genome editing, 10 pmol of SpCas9 (GenScript #Z03385) and 12 pmol of gRNA were mixed and incubated for 5 min. […]

T1 sequence (Q99ZW2 whole entry): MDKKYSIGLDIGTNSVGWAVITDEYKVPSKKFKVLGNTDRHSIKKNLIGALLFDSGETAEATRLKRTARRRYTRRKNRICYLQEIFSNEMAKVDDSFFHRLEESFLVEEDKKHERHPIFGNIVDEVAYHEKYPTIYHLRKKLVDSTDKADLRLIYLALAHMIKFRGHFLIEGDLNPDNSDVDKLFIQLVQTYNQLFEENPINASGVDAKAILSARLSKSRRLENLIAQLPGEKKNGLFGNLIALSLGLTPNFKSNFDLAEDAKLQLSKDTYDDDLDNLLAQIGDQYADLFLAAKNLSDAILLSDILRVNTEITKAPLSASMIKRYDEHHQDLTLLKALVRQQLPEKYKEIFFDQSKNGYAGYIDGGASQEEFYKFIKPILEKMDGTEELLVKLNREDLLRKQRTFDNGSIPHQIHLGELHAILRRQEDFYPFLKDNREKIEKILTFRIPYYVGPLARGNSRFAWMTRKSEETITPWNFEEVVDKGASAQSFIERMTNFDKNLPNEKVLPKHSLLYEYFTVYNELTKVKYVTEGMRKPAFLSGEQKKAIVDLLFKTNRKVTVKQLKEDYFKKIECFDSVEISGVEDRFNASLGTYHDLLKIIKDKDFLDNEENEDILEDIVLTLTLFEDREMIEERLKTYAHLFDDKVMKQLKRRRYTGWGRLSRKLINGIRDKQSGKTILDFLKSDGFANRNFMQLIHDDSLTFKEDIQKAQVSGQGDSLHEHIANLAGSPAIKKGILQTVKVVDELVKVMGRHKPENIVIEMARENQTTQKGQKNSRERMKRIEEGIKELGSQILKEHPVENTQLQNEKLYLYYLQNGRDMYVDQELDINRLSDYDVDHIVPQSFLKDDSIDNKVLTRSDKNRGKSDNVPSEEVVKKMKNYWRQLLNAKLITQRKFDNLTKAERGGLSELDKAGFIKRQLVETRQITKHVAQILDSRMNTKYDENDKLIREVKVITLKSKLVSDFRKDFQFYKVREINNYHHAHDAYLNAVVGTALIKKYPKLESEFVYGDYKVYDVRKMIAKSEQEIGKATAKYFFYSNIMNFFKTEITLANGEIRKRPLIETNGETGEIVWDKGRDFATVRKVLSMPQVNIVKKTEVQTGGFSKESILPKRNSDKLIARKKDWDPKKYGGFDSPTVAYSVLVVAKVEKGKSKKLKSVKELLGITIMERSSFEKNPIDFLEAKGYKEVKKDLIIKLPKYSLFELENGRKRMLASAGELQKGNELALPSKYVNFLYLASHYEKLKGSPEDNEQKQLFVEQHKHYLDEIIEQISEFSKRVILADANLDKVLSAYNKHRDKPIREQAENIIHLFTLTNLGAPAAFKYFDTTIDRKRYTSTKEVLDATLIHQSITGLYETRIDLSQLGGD

Consider `CCn1c(=O)c(C(=O)Nc2nccc(C)n2)c(O)c2ccccc21` [Compound G650-0193], for which, on SpCas9 [1], the “Average Normalized Z score” value was 0.21, the “avg z score primary” value amounted to 11.65, the “Normalized Z score 1” value came to 0.19 and the “Normalized Z score 2” value turned out to be 0.23. On SpCas9 [2], the “Normalized Z rep1” value was −0.05, the “Z score Rep1” value is reported as −0.45, the “SpCas9 eGFP disruption Rep1” value is 63.431 and the “Normalized Z rep2” value is listed as −0.43. For the same compound, at SpCas9 [2], the “Z socre Rep2” value was −6.43 and the “SpCas9 eGFP disruption Rep2” value is recorded as 55.676.

On to `Cn1nc(-c2ccccc2F)c2cc(C(=O)Oc3ccc4cnccc4c3)sc21` [Compound G784-0099], for which, at SpCas9 [1], the “Average Normalized Z score” value is reported as 0.07, the “avg z score primary” value is on record as 7.48, the “Normalized Z score 1” value turned out to be 0.06 and the “Normalized Z score 2” value amounted to 0.09. On SpCas9 [2], the “Normalized Z rep1” value is reported as −0.35, the “Z score Rep1” value is given as −3.62, the “SpCas9 eGFP disruption Rep1” value is 69.21 and the “Normalized Z rep2” value was 0.01. At SpCas9 [2], the “Z socre Rep2” value was 0.21 and the “SpCas9 eGFP disruption Rep2” value stood at 76.066.

In the case of `O=C(CCC(=O)c1ccc(F)cc1)OC1CCOC1=O` (stereo not shown) [Compound T0512-8635], on SpCas9 [1], the “avg z score primary” value came to 4.05, the “Normalized Z score 1” value stood at 0.04 and the “Normalized Z score 2” value is 0.04. The “Average Normalized Z score” value on SpCas9 [1] (average of replicates) is on record as 0.04.

`O=C(CSc1nnc2ccccn12)Nc1cc(C(=O)O)cc(C(=O)O)c1` [Compound T0513-0201]: on SpCas9 [1], the “avg z score primary” value is recorded as 11.30, the “Normalized Z score 1” value was determined as 0.10 and the “Normalized Z score 2” value is recorded as 0.13. The “Average Normalized Z score” value on SpCas9 [1] (average of replicates) amounted to 0.11.

Take `CCOC(=O)C1CCCN(Cn2nnn(-c3ccc(OC)cc3)c2=S)C1` (stereo not shown) [Compound T0513-0218]: on SpCas9 [1], the “avg z score primary” value is recorded as 3.45, the “Normalized Z score 1” value amounted to 0.04 and the “Normalized Z score 2” value came to 0.03. Also, the “Average Normalized Z score” value at SpCas9 [1] (average of replicates) worked out at 0.04.

`O=C(Nc1nnc(C2CC2)s1)c1ccc2ncsc2c1` [Compound T0514-1693]: at SpCas9 [1], the “avg z score primary” value is given as 5.62, the “Normalized Z score 1” value is listed as 0.07 and the “Normalized Z score 2” value was found to be 0.07. For the same compound, at SpCas9 [1] (average of replicates), the “Average Normalized Z score” value was 0.07.

`O=C(O)c1cccc(NCC2SC(=S)NC2=O)c1` (stereo not shown) [Compound T0514-3358]: at SpCas9 [1], the “avg z score primary” value is on record as 4.79, the “Normalized Z score 1” value was 0.32 and the “Normalized Z score 2” value is given as 0.27. Also, the “Average Normalized Z score” value on SpCas9 [1] (average of replicates) was 0.30.

As to `Oc1c(C(c2cccs2)N2CCCCC2)ccc2cccnc12` (stereo not shown) [Compound T0515-1927], at SpCas9 [1], the “avg z score primary” value was determined as 10.34, the “Normalized Z score 1” value came out at 0.70 and the “Normalized Z score 2” value was 0.67. On SpCas9 [1] (average of replicates), the “Average Normalized Z score” value came to 0.68.

With `O=C(COC(=O)c1cc(O)c(O)c(O)c1)NC1CCCc2ccccc21` (stereo not shown) [Compound T0515-9025], on SpCas9 [1], the “avg z score primary” value worked out at 4.00, the “Normalized Z score 1” value is recorded as 0.26 and the “Normalized Z score 2” value stood at 0.23. Besides, the “Average Normalized Z score” value on SpCas9 [1] (average of replicates) amounted to 0.25.

On to `Cc1ccc(Cl)cc1NC(=O)C1=NCCN1` [Compound T0519-9012], for which, at SpCas9 [1], the “avg z score primary” value turned out to be 5.06, the “Normalized Z score 1” value is 0.08 and the “Normalized Z score 2” value is listed as 0.12. For the same compound, the “Average Normalized Z score” value on SpCas9 [1] (average of replicates) worked out at 0.10.

Regarding `Cc1sc2nc3n(c(=O)c2c1-c1ccccc1)CCC3` [Compound T0520-0462], on SpCas9 [1], the “avg z score primary” value was 4.18, the “Normalized Z score 1” value came out at 0.04 and the “Normalized Z score 2” value turned out to be 0.05. In addition, on SpCas9 [1] (average of replicates), the “Average Normalized Z score” value was determined as 0.04.

Regarding `O=C(O)CSc1nnc(NC2CCCCC2)s1` [Compound T5211003], on SpCas9 [1], the “avg z score primary” value is given as 4.50, the “Normalized Z score 1” value came to 0.05 and the “Normalized Z score 2” value was determined as 0.05. Also, at SpCas9 [1] (average of replicates), the “Average Normalized Z score” value worked out at 0.05.

`NC(=S)c1ccccn1` [Compound T5211106]: at SpCas9 [1], the “avg z score primary” value came to 3.58, the “Normalized Z score 1” value was 0.04 and the “Normalized Z score 2” value came to 0.04. Further, on SpCas9 [1] (average of replicates), the “Average Normalized Z score” value is given as 0.04.

For the compound `CCc1ccc(NC(=O)C(C#N)=Cc2cc(C#N)n(C)c2C)cc1` [Compound T5229649], on SpCas9 [1], the “avg z score primary” value is 4.90, the “Normalized Z score 1” value is recorded as 0.06 and the “Normalized Z score 2” value came to 0.08. The “Average Normalized Z score” value on SpCas9 [1] (average of replicates) is given as 0.07.

For `N=C1N=CC(=NNc2cc(C(=O)O)ccc2Cl)S1` [Compound T5253378], on SpCas9 [1], the “avg z score primary” value is on record as 4.20, the “Normalized Z score 1” value stood at 0.08 and the “Normalized Z score 2” value is 0.07. Moreover, the “Average Normalized Z score” value on SpCas9 [1] (average of replicates) is listed as 0.07.

As to `CCC(CC)NC(=O)c1ccc2ncsc2c1` [Compound T5324509], at SpCas9 [1], the “avg z score primary” value came to 7.80, the “Normalized Z score 1” value is given as 0.12 and the “Normalized Z score 2” value is given as 0.09. Moreover, at SpCas9 [1] (average of replicates), the “Average Normalized Z score” value stood at 0.10.

Regarding `Cn1cccc1/C=C\C(=O)O` [Compound T5365031], on SpCas9 [1], the “avg z score primary” value worked out at 4.17, the “Normalized Z score 1” value was determined as 0.27 and the “Normalized Z score 2” value turned out to be 0.28. In addition, the “Average Normalized Z score” value at SpCas9 [1] (average of replicates) was 0.28.

For `O=C1NC(=S)C(=C2CCCC2)S1` [Compound T5441809], on SpCas9 [1], the “avg z score primary” value was determined as 22.96, the “Normalized Z score 1” value is given as 0.27 and the “Normalized Z score 2” value is 0.24. Further, the “Average Normalized Z score” value on SpCas9 [1] (average of replicates) worked out at 0.26.

Regarding `O=C(O)C(S)=C/C=C\c1ccccc1` [Compound T5441826], at SpCas9 [1], the “avg z score primary” value was 4.20, the “Normalized Z score 1” value worked out at 0.03 and the “Normalized Z score 2” value is 0.06. Further, at SpCas9 [1] (average of replicates), the “Average Normalized Z score” value was determined as 0.05.
